{"source": "ChEMBL document CHEMBL4418492", "about": "“Myc modulators and uses thereof” (2018)", "key": {"NAMALVA": {"tested_on": "NAMALVA", "test": "Cytotoxicity against human NAMALWA cells assessed as decrease in cell viability incubated for 72 hrs by CellTiter-Glo assay", "type": "functional, cell-based"}, "NCI-H1975": {"tested_on": "NCI-H1975", "test": "Cytotoxicity against human NCI-H1975 cells assessed as decrease in cell viability incubated for 72 hrs by CellTiter-Glo assay", "type": "functional, cell-based", "conditions": "NCI-H1975, 72 h; call rule not given here"}, "Lymphoma cell line": {"tested_on": "Lymphoma cell line", "test": "Cytotoxicity against mouse E-mu-Myc lymphoma cells assessed as decrease in cell viability incubated for 72 hrs by CellTiter-Glo assay", "type": "functional, cell-based"}, "[1]": {"target": "T1, Myc proto-oncogene protein (Homo sapiens, UniProt P01106)", "T1 sequence (P01106 whole entry)": "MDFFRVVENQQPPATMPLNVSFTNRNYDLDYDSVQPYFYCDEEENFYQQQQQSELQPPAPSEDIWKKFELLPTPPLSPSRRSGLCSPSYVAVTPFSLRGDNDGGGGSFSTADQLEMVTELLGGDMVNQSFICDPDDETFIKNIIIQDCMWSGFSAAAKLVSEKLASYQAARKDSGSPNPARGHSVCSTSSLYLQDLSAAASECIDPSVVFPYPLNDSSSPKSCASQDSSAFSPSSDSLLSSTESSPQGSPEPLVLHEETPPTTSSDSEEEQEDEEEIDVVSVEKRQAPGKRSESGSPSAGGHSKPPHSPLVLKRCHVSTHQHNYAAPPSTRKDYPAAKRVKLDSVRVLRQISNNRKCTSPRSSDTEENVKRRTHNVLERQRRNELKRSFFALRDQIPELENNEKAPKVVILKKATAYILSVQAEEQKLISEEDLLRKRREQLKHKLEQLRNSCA", "test": "Inhibition of Myc (unknown origin) expressed in HEK293T cells incubated for 16 hrs by firefly/renilla luciferase reporter gene assay", "type": "cell-based"}, "HeLa": {"tested_on": "HeLa", "test": "Cytotoxicity against human HeLa cells assessed as decrease in cell viability incubated for 72 hrs by CellTiter-Glo assay", "type": "functional, cell-based"}, "[2]": {"test": "Cytotoxicity against human SNUC5 cells assessed as decrease in cell viability incubated for 72 hrs by CellTiter-Glo assay", "type": "functional, cell-based"}, "[3]": {"test": "Cytotoxicity against human KLP1 cells assessed as decrease in cell viability incubated for 72 hrs by CellTiter-Glo assay", "type": "functional, cell-based"}, "[4]": {"target": "T1, Myc proto-oncogene protein", "test": "Binding affinity to Myc in cell lysates (unknown origin) assessed as c-Myc levels at 1 uM incubated using compound 19 beads by Western blotting based pull down assay relative to control", "type": "subcellular", "conditions": "Lysate"}, "[5]": {"target": "T1, Myc proto-oncogene protein", "test": "Binding affinity to Myc in cell lysates (unknown origin) assessed as c-Myc levels at 5 uM incubated using compound 19 beads by Western blotting based pull down assay relative to control", "type": "subcellular", "conditions": "Lysate"}, "[6]": {"target": "T1, Myc proto-oncogene protein", "test": "Binding affinity to Myc in cell lysates (unknown origin) assessed as c-Myc levels at 5 uM incubated using compound 55 beads by Western blotting based pull down assay relative to control", "type": "subcellular", "conditions": "Lysate"}}}
{"compound": "CC(C)N1C(=O)S/C(=C\\c2ccc(-c3nc4ccccc4[nH]3)o2)C1=O", "values": [{"measurement": "IC50", "setting": "NAMALVA", "result": 20.1, "unit": "µM"}, {"measurement": "IC50", "setting": "NCI-H1975", "result": 45.3, "unit": "µM"}, {"measurement": "IC50", "setting": "Lymphoma cell line", "result": "> 50", "unit": "µM"}]}
{"compound": "O=C(O)CN1C(=O)S/C(=C\\c2ccc(Sc3nc4ccccc4[nH]3)o2)C1=O", "values": [{"measurement": "IC50", "setting": "[1]", "result": "Not Active"}]}
{"compound": "O=C(CCCC[C@@H]1SC[C@@H]2NC(=O)N[C@@H]21)NCCCN1C(=O)S/C(=C\\c2ccc(Sc3nc4ccccc4[nH]3)o2)C1=O", "values": [{"measurement": "IC50", "setting": "NCI-H1975", "result": "> 50", "unit": "µM"}]}
{"compound": "O=C1NC(=O)C(=Cc2ccc(Sc3nc4ccccc4[nH]3)o2)C(=O)N1", "values": [{"measurement": "IC50", "setting": "[1]", "result": "Not Active"}]}
{"compound": "COC(=O)c1ccc(Sc2nc3ccccc3[nH]2)o1", "values": [{"measurement": "IC50", "setting": "[1]", "result": "Not Active"}]}
{"compound": "CC(C)N1C(=O)S/C(=C\\c2ccc(Sc3nc4ccccc4[nH]3)o2)C1=O", "values": [{"measurement": "IC50", "setting": "HeLa", "result": 3.32, "unit": "µM"}, {"measurement": "IC50", "setting": "NAMALVA", "result": "17.3 to 21.1", "unit": "µM"}, {"measurement": "IC50", "setting": "NCI-H1975", "result": "2.71 to 24.9", "unit": "µM"}, {"measurement": "IC50", "setting": "[2]", "result": 11.7, "unit": "µM"}, {"measurement": "IC50", "setting": "[3]", "result": 4.64, "unit": "µM"}, {"measurement": "Activity", "setting": "[4]", "result": 91, "unit": "%"}, {"measurement": "Activity", "setting": "[5]", "result": "73 to 84", "unit": "%"}, {"measurement": "Activity", "setting": "[6]", "result": 52, "unit": "%"}]}
{"compound": "O=C(O)c1ccc(Sc2nc3ccccc3[nH]2)o1", "values": [{"measurement": "IC50", "setting": "[1]", "result": "Not Active"}]}
{"compound": "O=C(c1ccc(Sc2nc3ccccc3[nH]2)o1)N1CCOCC1", "values": [{"measurement": "IC50", "setting": "[1]", "result": "Not Active"}]}
